The source of these data is US5840684A, “Glycopeptide antibiotic derivatives” (Eli Lilly and Company, priority 1995, dated 1998).

Assay [1] deals with Staphylococcus aureus SA1199B. Format: cell-based. The protocol: (§1) The MIC's were determined using a standard broth micro-dilution assay.
Assay [2] concerns Entercoccus faecium 180-1. Kind of assay: broth micro-dilution MIC. The class given is cell-based. The protocol:
as §1
On the technique in general: Dilution methods test growth across graded concentrations, often in twofold steps.

The subject of the next assay is Entercoccus faecium 276. Kind of assay: broth micro-dilution MIC. Format: cell-based. The protocol: as §1
Assay [3] concerns Staphylococcus aureus 446. Kind of assay: broth micro-dilution MIC. The class given is cell-based. The protocol: as §1
Assay [4] deals with Staphylococcus aureus 447. Nature of the assay: broth micro-dilution MIC. The class given is cell-based. As to the method: as §1
In assay [5] the test system is Staphylococcus aureus 489. Kind of assay: broth micro-dilution MIC. The class given is cell-based. The protocol: as §1
Assay [6] has as its system Staphylococcus aureus 491. Kind of assay: broth micro-dilution MIC. Format: cell-based. The protocol: as §1
Assay [7] deals with Staphylococcus aureus SA1199A. Kind of assay: broth micro-dilution MIC. The class given is cell-based. The protocol:
as §1

In assay [8] the test system is Staphylococcus aureus SA1199. Kind of assay: broth micro-dilution MIC. Format: cell-based. As to the method: as §1
For assay [9], the system named is Staphylococcus aureus X400. Kind of assay: broth micro-dilution MIC. The class given is cell-based. As to the method: as §1
The test system of assay [10] is Staphylococcus aureus X778. Nature of the assay: broth micro-dilution MIC. Format: cell-based. The protocol: as §1
Assay [11] concerns Streptococcus pyogenes C203. Kind of assay: broth micro-dilution MIC. The class given is cell-based. The protocol: as §1
In the next assay the test system is Entercoccus faecium 180. Nature of the assay: broth micro-dilution MIC. Format: cell-based. The settings on record: Entercoccus faecium 180. The protocol: (§2) The formula I compounds have in vitro and in vivo activity against Gram-positive pathogenic bacteria. The MIC's were determined using a standard broth micro-dilution assay.
Another assay has as its system Entercoccus faecium 2041. Nature of the assay: broth micro-dilution MIC. The class given is cell-based. To be noted: Entercoccus faecium 2041. As to the method: as §2
The test system of assay [12] is Enterococcus gallinarum 245. Nature of the assay: broth micro-dilution MIC. The class given is cell-based. The settings on record: Enterococcus gallinarum 245. As to the method:
as §2

Another assay has as its system Escherichia coli EC14. Kind of assay: broth micro-dilution MIC. The class given is cell-based. The protocol: as §2
The test system of assay [13] is Haemophilus influenzae RD. Kind of assay: broth micro-dilution MIC. The class given is cell-based. To be noted: Haemophilus influenzae RD. As to the method: as §2
The subject of assay [14] is Staphylococcus epidermidis 270. Nature of the assay: broth micro-dilution MIC. The class given is cell-based. The protocol:
as §2

Assay [15] relates to Staphylococcus haemolyticus 105. Kind of assay: broth micro-dilution MIC. The class given is cell-based. The protocol: as §2
Assay [16] has as its system Staphylococcus haemolyticus 415. Nature of the assay: broth micro-dilution MIC. The class given is cell-based. As to the method: as §2
Assay [17] has as its system Streptococcus pneumoniae P1. Nature of the assay: broth micro-dilution MIC. The class given is cell-based. As to the method: as §2
Assay [18] concerns vancomycin-resistant enterococci. Nature of the assay: broth micro-dilution, mean geometric MIC. Format: cell-based, Enterococcus faecium and Enterococcus faecalis. To be noted: enterococci, 24-hour incubation.
Assay [19] relates to vancomycin-susceptible enterococci. Kind of assay: broth micro-dilution, mean geometric MIC. The class given is cell-based, Enterococcus faecium and Enterococcus faecalis. To be noted: enterococci, 24-hour incubation.
The subject of assay [20] is Staphylococcus aureus S13E. Format: cell-based. The protocol:
as §1

≈ marks a conversion by molar mass, not a printed value. Some results are limits rather than exact numbers.

Turning to `CNC(CC(C)C)C(=O)NC1C(=O)NC(CC(N)=O)C(=O)NC2C(=O)NC3C(=O)NC(C(=O)NC(C(=O)O)c4cc(O)cc(O)c4-c4cc3ccc4O)C(OC3CC(C)(NCc4ccc([N+](=O)[O-])cc4)C(O)C(C)O3)c3ccc(c(Cl)c3)Oc3cc2cc(c3OC2OC(CO)C(O)C(O)C2OC2CC(C)(NCc3ccc([N+](=O)[O-])cc3)C(O)C(C)O2)Oc2ccc(cc2Cl)C1O` (centres unmarked) [Compound 245], the MIC (in assay [1]; in assay [2]; in the assay with Entercoccus faecium 276; in assay [3]; in assay [4]; in [5]) was not above 0.06 µg/mL in each case. Also, the MIC in [6] was 0.5 µg/mL (≈ 0.268 µM); in assay [7], not above 0.06 µg/mL; in [8], 0.25 µg/mL (≈ 0.134 µM); in assay [9], not above 0.06 µg/mL; in assay [10], not above 0.06 µg/mL; in assay [11] it was 2 µg/mL (≈ 1.07 µM). The MIC was 2 µg/mL (≈ 1.07 µM) in the assay with Entercoccus faecium 180; not above 0.06 µg/mL against Entercoccus faecium 2041; not above 0.06 µg/mL in assay [12]; 0.5 µg/mL (≈ 0.268 µM) with Escherichia coli EC14; more than 64 µg/mL in assay [13]; 0.5 µg/mL (≈ 0.268 µM) in assay [14]. The MIC came to 1 µg/mL (≈ 0.537 µM) in assay [15], 8 µg/mL (≈ 4.29 µM) in [16] and 1 µg/mL (≈ 0.537 µM) in [17]. Besides, in assay [18], the “mean geometric MIC, Vancomycin Resistant Strains” value was 13 µg/mL. For the same molecule, in assay [19], the “mean geometric MIC, Vancomycin Sensitive Strains” value came to 0.38 µg/mL.

Consider `CC(C)CC(C(=O)NC1C(=O)NC(CC(N)=O)C(=O)NC2C(=O)NC3C(=O)NC(C(=O)NC(C(=O)O)c4cc(O)cc(O)c4-c4cc3ccc4O)C(OC3CC(C)(N)C(O)C(C)O3)c3ccc(c(Cl)c3)Oc3cc2cc(c3OC2OC(CO)C(O)C(O)C2OC2CC(C)(NCc3ccc(Oc4ccccc4)cc3)C(O)C(C)O2)Oc2ccc(cc2Cl)C1O)N(C)Cc1ccc(Oc2ccccc2)cc1` (centres unmarked) [Compound 247], for which the MIC was 0.5 µg/mL (≈ 0.256 µM) in [20]; 0.5 µg/mL (≈ 0.256 µM) in assay [1]; not above 0.06 µg/mL in assay [2]; 0.25 µg/mL (≈ 0.128 µM) in the assay on Entercoccus faecium 276; 0.5 µg/mL (≈ 0.256 µM) in assay [3]; 1 µg/mL (≈ 0.511 µM) in assay [4]. Besides, the MIC in assay [5] was 0.25 µg/mL (≈ 0.128 µM); in [6], 0.5 µg/mL (≈ 0.256 µM); in assay [7], not above 0.06 µg/mL; in [8], 1 µg/mL (≈ 0.511 µM); in assay [9] it was 0.5 µg/mL (≈ 0.256 µM); in [10], 0.5 µg/mL (≈ 0.256 µM). Moreover, the MIC in [11] is not above 0.06 µg/mL; in the assay on Entercoccus faecium 180 it was 0.5 µg/mL (≈ 0.256 µM); against Entercoccus faecium 2041 it was 0.125 µg/mL (≈ 0.0639 µM); in [12] it was 0.125 µg/mL (≈ 0.0639 µM); in the assay on Escherichia coli EC14 it was more than 64 µg/mL; in assay [13] it was more than 64 µg/mL. Moreover, the MIC in [14] is 1 µg/mL (≈ 0.511 µM); in assay [15] it was 1 µg/mL (≈ 0.511 µM); in assay [16], 2 µg/mL (≈ 1.02 µM); in assay [17], not above 0.06 µg/mL. For the same molecule, the “mean geometric MIC, Vancomycin Resistant Strains” value in assay [18] came to 2.4 µg/mL. In addition, the “mean geometric MIC, Vancomycin Sensitive Strains” value in assay [19] was 0.29 µg/mL.

Take `CNC(CC(C)C)C(=O)NC1C(=O)NC(CC(N)=O)C(=O)NC2C(=O)NC3C(=O)NC(C(=O)NC(C(=O)O)c4cc(O)cc(O)c4-c4cc3ccc4O)C(OC3CC(C)(NCc4ccc(-c5ccccc5)cc4)C(O)C(C)O3)c3ccc(c(Cl)c3)Oc3cc2cc(c3OC2OC(CO)C(O)C(O)C2OC2CC(C)(NCc3ccc(-c4ccccc4)cc3)C(O)C(C)O2)Oc2ccc(cc2Cl)C1O` (centres unmarked) [Compound 248]: the MIC in assay [20] was 0.5 µg/mL (≈ 0.26 µM); in assay [1], 8 µg/mL (≈ 4.16 µM); in assay [2], not above 0.06 µg/mL; against Entercoccus faecium 276, 2 µg/mL (≈ 1.04 µM); in assay [3], 2 µg/mL (≈ 1.04 µM); in [4], 4 µg/mL (≈ 2.08 µM). In addition, the MIC is 2 µg/mL (≈ 1.04 µM) in [5]; 1 µg/mL (≈ 0.52 µM) in [6]; 1 µg/mL (≈ 0.52 µM) in assay [7]; 1 µg/mL (≈ 0.52 µM) in assay [8]; 4 µg/mL (≈ 2.08 µM) in [9]; 4 µg/mL (≈ 2.08 µM) in assay [10]. Moreover, the MIC in assay [11] was not above 0.06 µg/mL; with Entercoccus faecium 180 it was 0.25 µg/mL (≈ 0.13 µM); with Entercoccus faecium 2041, 1 µg/mL (≈ 0.52 µM); in assay [12], 4 µg/mL (≈ 2.08 µM); in the assay with Escherichia coli EC14 it was more than 64 µg/mL; in assay [13] it was more than 64 µg/mL. The MIC in [14] is 0.5 µg/mL (≈ 0.26 µM); in [15] it was 2 µg/mL (≈ 1.04 µM); in [16], 4 µg/mL (≈ 2.08 µM); in assay [17], not above 0.06 µg/mL. The “mean geometric MIC, Vancomycin Resistant Strains” value in assay [18] amounted to 2 µg/mL. Moreover, the “mean geometric MIC, Vancomycin Sensitive Strains” value in [19] amounted to 0.66 µg/mL.

With `CC(C)CC(C(=O)NC1C(=O)NC(CC(N)=O)C(=O)NC2C(=O)NC3C(=O)NC(C(=O)NC(C(=O)O)c4cc(O)cc(O)c4-c4cc3ccc4O)C(OC3CC(C)(NCc4ccc(-c5ccccc5)cc4)C(O)C(C)O3)c3ccc(c(Cl)c3)Oc3cc2cc(c3OC2OC(CO)C(O)C(O)C2OC2CC(C)(NCc3ccc(-c4ccccc4)cc3)C(O)C(C)O2)Oc2ccc(cc2Cl)C1O)N(C)Cc1ccc(-c2ccccc2)cc1` (centres unmarked) [Compound 249], the MIC in [20] is more than 64 µg/mL; in assay [1] it was more than 64 µg/mL; in assay [2], 4 µg/mL (≈ 1.91 µM); against Entercoccus faecium 276, more than 64 µg/mL; in assay [3], 64 µg/mL (≈ 30.6 µM); in assay [4] it was more than 64 µg/mL. The MIC in assay [5] was more than 64 µg/mL; in [6] it was 32 µg/mL (≈ 15.3 µM); in assay [7], 8 µg/mL (≈ 3.83 µM); in assay [8], more than 64 µg/mL; in [9] it was more than 64 µg/mL; in assay [10], more than 64 µg/mL. The MIC was 0.5 µg/mL (≈ 0.239 µM) in [11]; 16 µg/mL (≈ 7.65 µM) in the assay with Entercoccus faecium 180; more than 64 µg/mL with Entercoccus faecium 2041; more than 64 µg/mL in assay [12]; more than 64 µg/mL against Escherichia coli EC14; more than 64 µg/mL in [13]. Moreover, the MIC was 32 µg/mL (≈ 15.3 µM) in [14], more than 64 µg/mL in [15], more than 64 µg/mL in [16] and 1 µg/mL (≈ 0.478 µM) in assay [17]. Further, the “mean geometric MIC, Vancomycin Resistant Strains” value in assay [18] worked out at 11 µg/mL. For the same molecule, the “mean geometric MIC, Vancomycin Sensitive Strains” value in assay [19] stood at 3.5 µg/mL.

As to `CC(C)CC(C(=O)NC1C(=O)NC(CC(N)=O)C(=O)NC2C(=O)NC3C(=O)NC(C(=O)NC(C(=O)O)c4cc(O)cc(O)c4-c4cc3ccc4O)C(OC3CC(C)(N)C(O)C(C)O3)c3ccc(c(Cl)c3)Oc3cc2cc(c3OC2OC(CO)C(O)C(O)C2OC2CC(C)(N)C(O)C(C)O2)Oc2ccc(cc2Cl)C1O)N(C)Cc1ccc(-c2ccccc2)cc1` (centres unmarked) [Compound 250], the MIC in assay [20] is not above 0.06 µg/mL; in assay [1], not above 0.06 µg/mL; in assay [2] it was not above 0.06 µg/mL; with Entercoccus faecium 276, not above 0.06 µg/mL; in assay [3], 0.25 µg/mL (≈ 0.142 µM); in assay [4], 0.125 µg/mL (≈ 0.0711 µM). For the same molecule, the MIC in assay [5], in [6], in assay [7], in assay [8], in assay [9] and in assay [10] was not above 0.06 µg/mL throughout. Moreover, the MIC in assay [11] was not above 0.06 µg/mL; against Entercoccus faecium 180 it was 2 µg/mL (≈ 1.14 µM); with Entercoccus faecium 2041, not above 0.06 µg/mL; in assay [12], 4 µg/mL (≈ 2.27 µM); in the assay on Escherichia coli EC14, more than 64 µg/mL; in assay [13], more than 64 µg/mL. For the same molecule, the MIC is 0.25 µg/mL (≈ 0.142 µM) in assay [14], 2 µg/mL (≈ 1.14 µM) in [15], 4 µg/mL (≈ 2.27 µM) in assay [16] and not above 0.06 µg/mL in assay [17]. In addition, in assay [18], the “mean geometric MIC, Vancomycin Resistant Strains” value worked out at 16 µg/mL. In [19], the “mean geometric MIC, Vancomycin Sensitive Strains” value turned out to be 0.44 µg/mL.
